Consider 26 molecules from patent US8686024B2, “Indoline derivatives” (priority 2009, dated 2014).

pIC50: −log10 of the molar value. Like-named read-outs stand apart in the source and are kept apart here.

Assay [1] has as its target T1, acetylcholine esterase (AChE) (Mus musculus, UniProt P21836).
T1 construct: brain homogenate and serum of mouse were used as choline esterase enzyme sources; from tissue; host or cells: mouse brain homogenate
T1 sequence (P21836 32-614): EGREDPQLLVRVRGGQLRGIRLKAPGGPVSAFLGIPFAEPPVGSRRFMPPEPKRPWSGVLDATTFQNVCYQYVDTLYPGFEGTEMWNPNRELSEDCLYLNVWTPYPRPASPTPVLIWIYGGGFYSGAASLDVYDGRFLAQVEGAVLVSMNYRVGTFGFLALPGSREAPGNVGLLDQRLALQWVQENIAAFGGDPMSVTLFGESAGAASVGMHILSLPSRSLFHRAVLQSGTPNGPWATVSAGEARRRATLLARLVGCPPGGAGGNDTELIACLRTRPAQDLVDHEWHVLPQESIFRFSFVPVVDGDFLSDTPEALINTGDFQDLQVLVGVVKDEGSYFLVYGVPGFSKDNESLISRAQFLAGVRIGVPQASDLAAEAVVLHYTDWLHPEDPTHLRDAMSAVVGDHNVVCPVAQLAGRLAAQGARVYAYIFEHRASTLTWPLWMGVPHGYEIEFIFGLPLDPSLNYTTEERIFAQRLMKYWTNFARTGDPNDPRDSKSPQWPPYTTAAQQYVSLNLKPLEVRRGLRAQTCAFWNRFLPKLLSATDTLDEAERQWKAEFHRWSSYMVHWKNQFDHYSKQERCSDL
Briefly: In vitro assay for choline esterase inhibition (Ellman method), acetylthiocholine substrate, mouse brain homogenate. Type of assay: biochemical. The procedure:
(§1) For measurement of esterase activity, brain homogenate and serum of mouse were used as choline esterase enzyme sources, and the method of Ellman et. al (Biochemical pharmacology 7: 88-95 1961) were referred. Compound of each example were diluted in dimethylsulfoxide.
(§2) In detail, acetylthiocholine or butyrylthiocholine as substrates, test compounds, and DNTB [[…]] were added to the mouse brain homogenate or serum, respectively.
(§3) After incubation, thiocholine was produced by enzyme reaction in the mixture, and then, the yellow product was formed by the reaction of thiocholine and DTNB. The activity of acetylcholine esterase (AChE) or butyrylcholine esterase (BuChE) was evaluated by determination of absorbance at 415 nm. […] And the selectivity for BuChE inhibition of each compound was calculated by the ratio: IC50 (AchE)/IC50 (BuChE).

Assay [2] addresses T2, butyrylcholine esterase (BuChE) (Mus musculus, UniProt Q03311).
T2 construct: brain homogenate and serum of mouse were used as choline esterase enzyme sources; from tissue; host or cells: mouse serum
The experiment in a line: In vitro assay for choline esterase inhibition (Ellman method), butyrylthiocholine substrate, mouse serum. Type of assay: biochemical. The following applies: for Ratio AChE/BuChE: selectivity for BuChE inhibition: IC50 (AchE)/IC50 (BuChE); for selectivity to butyrylcholinesterase (BuChE versus AChE inhibitory activity), in words: summary of Tables 1-3. As to the method: as §1, §2, §3

Setting [3] is: mouse brain homogenate, acetylthiocholine, absorbance at 415 nm, read-out: AChE inhibitory activity IC50.
The mark [4] stands for this setting: mouse serum, butyrylthiocholine, absorbance at 415 nm, read-out: BuChE inhibitory activity IC50.

T2 sequence (Q03311 30-603): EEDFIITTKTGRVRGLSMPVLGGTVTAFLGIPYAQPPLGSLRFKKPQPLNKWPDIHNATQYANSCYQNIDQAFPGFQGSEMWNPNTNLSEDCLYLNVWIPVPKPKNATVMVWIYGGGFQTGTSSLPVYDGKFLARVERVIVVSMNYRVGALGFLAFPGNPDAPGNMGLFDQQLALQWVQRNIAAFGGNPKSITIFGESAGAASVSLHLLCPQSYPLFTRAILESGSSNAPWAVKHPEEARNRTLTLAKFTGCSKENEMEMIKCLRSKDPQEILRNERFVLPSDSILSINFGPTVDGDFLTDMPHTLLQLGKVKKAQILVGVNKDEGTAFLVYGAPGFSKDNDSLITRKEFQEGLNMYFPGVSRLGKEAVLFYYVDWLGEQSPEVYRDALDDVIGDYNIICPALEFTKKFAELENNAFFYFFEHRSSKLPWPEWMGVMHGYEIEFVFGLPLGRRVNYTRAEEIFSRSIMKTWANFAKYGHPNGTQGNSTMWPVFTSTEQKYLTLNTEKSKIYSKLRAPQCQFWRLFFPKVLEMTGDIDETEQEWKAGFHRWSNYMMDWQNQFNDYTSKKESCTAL

What is called pIC50 is the negative decadic logarithm of the IC50, by convention in mol/L. For `O=C(NCc1cccs1)Oc1ccc2c(c1)CCN2Cc1ccccc1` [Example 98, 1-benzylindolin-5-yl 2-thiophenemethylcarbamate], the pIC50 in assay [1] (setting [3]) was 5.80. Moreover, the pIC50 in assay [2] (setting [4]) is 7.92. In assay [2], the “Ratio AChE/BuChE” value worked out at 130 and the “selectivity to butyrylcholinesterase (BuChE versus AChE inhibitory activity), in words” value is on record as “much higher”.
`CCC(COC)NC(=O)Oc1ccc2c(c1)CCN2Cc1ccccc1` (stereo not drawn) [Example 46, 1-benzylindolin-5-yl 1-methoxybutan-2-ylcarbamate]: the results for the pIC50 in assay [1] and in assay [2] were < 4.00 and 6.82, respectively. For the same molecule, the “Ratio AChE/BuChE” value in assay [2] is listed as >670.
Take `CN(C)CCCNC(=O)Oc1ccc2c(c1)CCN2Cc1ccccc1` [Example 137, 1-benzylindolin-5-yl 3-(dimethylamino)propylcarbamate]: the pIC50 in assay [1] was < 4.00; in assay [2] it was 6.74. Besides, the “Ratio AChE/BuChE” value in assay [2] is recorded as >560.
The matching figures for `CC(C)c1ccc(NC(=O)Oc2ccc3c(c2)CCN3Cc2c[nH]c3ccccc23)cc1` [Example 80, 1-(indol-3-ylmethyl)indolin-5-yl 4-isopropylphenylcarbamate]: < 4.00, 6.85 and >710.
For `O=C(NC1Cc2ccccc2C1)Oc1ccc2c(c1)CCN2Cc1ccccc1` [Example 44, 1-benzylindolin-5-yl 2-indanylcarbamate], in assay [1], the pIC50 is < 4.00. For the same molecule, in assay [2], the pIC50 is 7.49; the “Ratio AChE/BuChE” value is listed as >3100; the “selectivity to butyrylcholinesterase (BuChE versus AChE inhibitory activity), in words” value is reported as “much higher”.
Consider `O=C(NCC1CCOC1)Oc1ccc2c(c1)CCN2Cc1ccccc1` (stereo not drawn) [Example 155, 1-benzylindolin-5-yl 3-tetrahydrofurylmethylcarbamate], for which, in assay [1] (setting [3]), the pIC50 is 4.24. In addition, in assay [2] (setting [4]), the pIC50 was 7.82. In assay [2], the “Ratio AChE/BuChE” value came out at 3800 and the “selectivity to butyrylcholinesterase (BuChE versus AChE inhibitory activity), in words” value is on record as “much higher”.
As for `CC(C)(C)CCNC(=O)Oc1ccc2c(c1)CCN2Cc1ccccc1` [Example 42, 1-benzylindolin-5-yl 3,3-dimethylbutylcarbamate], the pIC50 in assay [1] was < 4.00. Further, in assay [2], the pIC50 is 7.64; the “Ratio AChE/BuChE” value was >4300; the “selectivity to butyrylcholinesterase (BuChE versus AChE inhibitory activity), in words” value is “much higher”.
Turning to `O=C(NCc1ccccn1)Oc1ccc2c(c1)CCN2Cc1ccccc1` [Example 102, 1-benzylindolin-5-yl 2-pyridylmethylcarbamate], the results for the pIC50 in assay [1] (setting [3]) and in assay [2] (setting [4]) were 5.00 and 6.89, respectively. For the same molecule, the “Ratio AChE/BuChE” value in assay [2] turned out to be 77.
As to `CC(C)c1ccc(NC(=O)Oc2ccc3c(c2)CCN3CCC(C)(C)C)cc1` [Example 7, 1-(3,3-dimethylbutyl)indolin-5-yl 4-isopropylphenylcarbamate], the pIC50 in assay [1] was < 4.00. In assay [2], the pIC50 was 6.05 and the “Ratio AChE/BuChE” value is listed as >110.
The like results for `Cc1ccc(C(C)NC(=O)Oc2ccc3c(c2)CCN3Cc2ccccc2)cc1` (stereo not drawn) [Example 97, 1-benzylindolin-5-yl 1-(p-tolyl)ethylcarbamate] were, in that order, < 4.00, 6.35 and >220.
With `Cc1ccc(CCNC(=O)Oc2ccc3c(c2)CCN3Cc2ccccc2)cc1` [Example 91, 1-benzylindolin-5-yl-4-methylphenethylcarbamate], the pIC50 in assay [1] (setting [3]) is < 4.00. Besides, the pIC50 in assay [2] (setting [4]) is 7.23. In assay [2], the “Ratio AChE/BuChE” value is on record as >1700 and the “selectivity to butyrylcholinesterase (BuChE versus AChE inhibitory activity), in words” value was “much higher”.
`CNC(=O)Oc1ccc2c(c1)CCN2Cc1ccccc1` [Example 131, 1-benzylindolin-5-yl methylcarbamate] showed a negative logarithm of the IC50 (pIC50) in assay [1] of 5.89. Also, in assay [2], the pIC50 is 6.68 and the “Ratio AChE/BuChE” value worked out at 6.2.
Consider `CC(C)(C)C1CCC(NC(=O)Oc2ccc3c(c2)CCN3Cc2ccccc2)CC1` (stereo not drawn) [Example 43, 1-benzylindolin-5-yl 4-tert-butylcyclohexylcarbamate], for which the negative-log IC50 (pIC50) was < 4.00 in assay [1] and 6.77 in assay [2]. Besides, the “Ratio AChE/BuChE” value in assay [2] is >590.
Take `CN(CC1CCCCC1)C(=O)Oc1ccc2c(c1)CCN2Cc1ccccc1` [Example 214, O-(1-benzylindolin-5-yl)-N-(cyclohexylmethyl)-N-methylcarbamate]: the pIC50 in assay [1] was < 4.00. Further, in assay [2], the pIC50 is 7.29; the “Ratio AChE/BuChE” value is recorded as >2000; the “selectivity to butyrylcholinesterase (BuChE versus AChE inhibitory activity), in words” value is listed as “much higher”.
`O=C(NC1CCCCC1)Oc1ccc2c(c1)CCN2Cc1ccccn1` [Example 149, 1-(2-pyridylmethyl)indolin-5-yl cyclohexylcarbamate]: the pIC50 was 5.66 in assay [1] (setting [3]) and 7.24 in assay [2] (setting [4]). The “Ratio AChE/BuChE” value in assay [2] is listed as 38.
Regarding `CC(C)c1ccc(CCNC(=O)Oc2ccc3c(c2)CCN3Cc2ccccc2)cc1` [Example 33, 1-benzylindolin-5-yl 4-isopropylphenethylcarbamate], the pIC50 is < 4.00 in assay [1] and 6.46 in assay [2]. In addition, the “Ratio AChE/BuChE” value in assay [2] was >290.
`COc1cc(CN2CCc3cc(OC(=O)Nc4ccc(C(C)C)cc4)ccc32)ccc1O` [Example 67, 1-(4-hydroxy-3-methoxybenzyl)indolin-5-yl-4-isopropylphenylcarbamate]: the values for the pIC50 in assay [1] (setting [3]) and in assay [2] (setting [4]) were < 4.00 and 5.89, respectively. Also, the “Ratio AChE/BuChE” value in assay [2] was >77.
For `CC(=O)NCCC1CN(Cc2ccccc2)c2ccc(OC(=O)Nc3ccc(C(C)C)cc3)cc21` (stereo not drawn) [Example 160, 3-(2-acetamidethyl)-1-benzylindolin-5-yl-4-isopropylphenylcarbamate], the pIC50 in assay [1] was < 4.00; in assay [2], 6.26. The “Ratio AChE/BuChE” value in assay [2] is listed as >180.
For the molecule `CC(C)CNC(=O)Oc1ccc2c(c1)CCN2Cc1ccccc1` [Example 35, 1-benzylindolin-5-yl 2-methylpropylcarbamate], the pIC50 in assay [1] (setting [3]) was 4.34. For the same molecule, the pIC50 in assay [2] (setting [4]) is 8.10. Besides, in assay [2], the “Ratio AChE/BuChE” value is 5800 and the “selectivity to butyrylcholinesterase (BuChE versus AChE inhibitory activity), in words” value is listed as “much higher”.
`CCNC(=O)Oc1ccc2c(c1)CCN2Cc1ccccc1` [Example 57, 1-benzylindolin-5-yl ethylcarbamate]: the pIC50 in assay [1] (setting [3]) is 4.16. The pIC50 in assay [2] (setting [4]) was 7.47. In addition, in assay [2], the “Ratio AChE/BuChE” value was 2000 and the “selectivity to butyrylcholinesterase (BuChE versus AChE inhibitory activity), in words” value is “much higher”.
Consider `O=C(NCC1CCCO1)Oc1ccc2c(c1)CCN2Cc1ccccc1` (stereo not drawn) [Example 51, 1-benzylindolin-5-yl 2-tetrahydrofurylmethylcarbamate], for which, in assay [1] (setting [3]), the pIC50 was 4.74. Besides, the pIC50 in assay [2] (setting [4]) is 7.80. In assay [2], the “Ratio AChE/BuChE” value is 1100 and the “selectivity to butyrylcholinesterase (BuChE versus AChE inhibitory activity), in words” value is “much higher”.
For `O=C(Nc1ccc2c(c1)OCO2)Oc1ccc2c(c1)CCN2Cc1ccccc1` [Example 12, 1-benzylindolin-5-yl 5-benzo[d][1,3]dioxolylcarbamate], the pIC50 in assay [1] (setting [3]) was 4.96; in assay [2] (setting [4]), 6.54. In addition, the “Ratio AChE/BuChE” value in assay [2] is 38.
With `CCCCCC(C)NC(=O)Oc1ccc2c(c1)CCN2Cc1ccccc1` (stereo not drawn) [Example 50, 1-benzylindolin-5-yl 2-heptylcarbamate], in assay [1], the pIC50 is < 4.00. Also, in assay [2], the pIC50 is 7.28; the “Ratio AChE/BuChE” value was >1900; the “selectivity to butyrylcholinesterase (BuChE versus AChE inhibitory activity), in words” value was “much higher”.
`CCCCCCNC(=O)Oc1ccc2c(c1)CCN2Cc1ccccc1` [Example 17, 1-benzylindolin-5-yl n-hexylcarbamate]: the pIC50 in assay [1] (setting [3]) is 5.10. The pIC50 in assay [2] (setting [4]) was 7.80. In assay [2], the “Ratio AChE/BuChE” value was 500 and the “selectivity to butyrylcholinesterase (BuChE versus AChE inhibitory activity), in words” value is recorded as “much higher”.
Take `O=C(Nc1ccc2c(c1)CCC2)Oc1ccc2c(c1)CCN2Cc1ccccc1` [Example 85, 1-benzylindolin-5-yl 5-indanylcarbamate]: the pIC50 in assay [1] is < 4.00. Moreover, in assay [2], the pIC50 is 6.38 and the “Ratio AChE/BuChE” value is recorded as >240.
`O=C(NC1CCCc2ccccc21)Oc1ccc2c(c1)CCN2Cc1ccccc1` (stereo not drawn) [Example 96, 1-benzylindolin-5-yl-1,2,3,4-tetrahydronaphthalen-1-ylcarbamate]: the pIC50 in assay [1] (setting [3]) is < 4.00. Also, in assay [2] (setting [4]), the pIC50 was 7.77. Also, in assay [2], the “Ratio AChE/BuChE” value is given as >5900 and the “selectivity to butyrylcholinesterase (BuChE versus AChE inhibitory activity), in words” value was “much higher”.
